The values that follow come from patent US20260109714A1, “PYRIMIDINE-FUSED RING COMPOUND, AND PREPARATION METHOD THEREFOR AND USE THEREOF” (GENFLEET THERAPEUTICS (SHANGHAI) INC., priority 2022, published 2026).

The nature of data set [1]: Pharmacokinetic evaluation test in mice. To be noted: male, CD-1, mouse, plasma, po, 10 mg/kg.
Procedure: Test objective: Male CD-1 mice were used as test animals. The drug concentrations in plasma of mice at various times were determined by LC/MS/MS after intravenous and oral administration of the test compounds. The pharmacokinetic behavior of the test compounds in mice was studied and their pharmacokinetic characteristics were evaluated.
Test methods: test animals: 60 healthy adult male CD-1 mice, aged 6-8 weeks and weighing about 30 g, and divided into 10 groups, including IV groups (intravenous injection group, five groups), with 6 mice in each group; and PO groups (oral administration group, five groups), with 6 mice in each group.
Preparation of drug solution: IV group: Taking 10 mL sample solution as an example, 2 mg sample was weighed, 0.5 mL DMSO and 1 mL Solutol HS 15 were sequentially added, and then 8.5 mL 6% HP-β-CD was added, and stirred ultrasonically to obtain a clear solution of 0.2 mg/mL.
PO group 1: Taking 10 mL sample solution as an example, 10 mg sample was weighed, 0.5 mL DMSO and 1 mL Solutol HS 15 were sequentially added, and then 8.5 mL 6% HP-β-CD was added, and stirred ultrasonically to obtain a 1 mg/mL solution.
PO group 2: A 3 mg/mL solution of the sample was prepared according to the preparation method for PO group 1.
Administration: After overnight fasting, the mice in the IV group were administered with a volume of 5 mL/kg at a dose of 1 mg/kg.
PO group 1: The mice were administered with a volume of 10 mL/kg at a dose of 10 mg/kg.
PO group 2: The mice were administered with a volume of 10 mL/kg at a dose of 30 mg/kg.
Experimental operations: Male CD-1 mice in the intravenous injection group and oral administration group were given the test compound, respectively. After that, 50 μl of blood was periodically collected into a K2EDTA anticoagulation tube at 0.0833, 0.25, 0.5, 1, 2, 4, 6, 8 and 24 hrs, and the plasma was separated by centrifugation at 4° C. and 8000 rpm for 15 min. The plasma was stored in dry ice at −80° C. 4 hrs after administration, the animals were allowed to free access to food. The contents of the test compounds in plasma of mice after intravenous and oral administration were determined by LC/MS/MS. The linear range of the method was 1-3000 ng/ml. The plasma samples were treated with acetonitrile to precipitate the protein and then analyzed.
The test system of data set [2] is AsPC-1 human pancreatic cancer cell with KRAS G12D mutation. The data set is described as follows: Cell proliferation inhibition experiment, 3D CellTiter-Glo, AsPC-1. In kind it is cell-based. As to conditions: AsPC-1 cells, 3D spheroid, 5 days. An excerpt: (§1) AsPC-1 was purchased from ATCC, Article No.: CRL-1682; AGS was purchased from ATCC, Article No.: CRL-1739; RPMI1640 was purchased from Gibco, Article No.: 11875-093 2235123; F12K was purchased from Gibco, Article No.: 21127-022; FBS was purchased from Gibco, Article No.: 10099-141C; the trypsin (containing EDTA) was purchased from Gibco, Article No.: 25200-072; CellTiter Glo-3D was purchased from Progema, Article No.: G9683; the 384-well spheroid plate was purchased from Corning, Article No.: 3830; the white-bottom opaque 384-well plate was purchased from Corning, Article No.: 3570; the cell counter was purchased from CHEMOMETEC, model: NC-200; the microplate reader was purchased from PerkinElmer, model: Envison;
(§2) AsPC-1, an endogenous human pancreatic cancer cell AsPC-1 with KRAS^G12D mutation, was cultured in RPMI-1640 medium containing 10% FBS. AGS, a human gastric cancer cell line with KRAS^G12D mutation, was cultured in F-12K medium containing 10% FBS. Cells in logarithmic growth period were digested with trypsin (containing EDTA), collected and counted. 800 AsPC-1 cells/well or 400 […] were inoculated in a 384-well spheroid plate, and cultured overnight in an incubator with 5% CO2 to establish a 3D cell model. 1000× compound stock solutions with gradient concentrations of 3.16 times were prepared with DMSO, and 100-fold diluted to 10× compound stock solutions with the culture medium. The 10× compound stock solution was added to each cell culture well on the second day after cell inoculation, to give a final concentration of 1× and DMSO content of 0.1%. DMSO was used as the control, and the culture medium was used as the blank. After the compound was added, the cells were cultured for 5 days. 30 μl CellTiter-Glo working solution was added to each well, and mixed uniformly. The cells were incubated for 30 min, and allowed to stand at room temperature for 30 min. 40 μl of the mixture was transferred to a white-bottom opaque 384-well plate, and the luminescence was read on a microplate reader. The inhibition rate on cell proliferation was calculated by a formula: IR (%)=(RLU of control−RLU of compound)/(RLU of control−RLU of blank)×100%. The gradient concentrations of the compound and the corresponding inhibition rates were fitted by using XLFit four-parameter method, and the IC50 value was calculated. […] The results of some exemplary compounds are shown in Table 2 below (—means not tested).

Data set [3] concerns AGS p-ERK. The data set is described as follows: Cell assay for p-ERK (HTRF, Advance ERK phospho-T202/Y204 kit). As to conditions: AGS cells (KRAS G12D), 3 hrs with compound, inhibition of p-ERK level. The class given is cell-based, human. How it is done: AGS was purchased from ATCC, Article No.: CRL-1739; F12K was purchased from Gibco, Article No.: 21127-022; FBS was purchased from Gibco, Article No.: 10099-141C; the trypsin (containing EDTA) was purchased from Gibco, Article No.: 25200-072; DMSO was purchased from VWRAMRESCO, Article No.: 0231-500ML; the 96-well cell culture plate was purchased from Corning, Article No.: 3599; the white-bottom opaque 96-well plate was purchased from Cisbio, Article No.: 66PL96025; Advance ERK phospho-T202/Y204 kit was purchased from Cisbio, Article No.: 64AERPEH; the cell counter was purchased from CHEMOMETEC, model: NC-200; the microplate reader was purchased from PerkinElmer, model: Envison.
AGS, an endogenous human gastric adenocarcinoma cell line with KRAS^G12D mutation, was cultured in F12K+10% FBS medium. On the first day of the experiment, cells in logarithmic growth period were digested with trypsin (containing EDTA), collected and counted, and about 20,000 cells/well were inoculated in a 96-well cell culture plate and cultured overnight in an incubator with 5% CO2. 1000× compound stock solutions with gradient concentrations of 3.16 times were prepared with DMSO, and 200-fold diluted to 5× compound stock solutions with the above culture medium. The 5× compound stock solution was added to each cell culture well on the second day after cell inoculation, to give a final concentration of 1× and DMSO content of 0.1%. DMSO was used as experimental control. After adding the compound, the cells were continuously cultured for 3 hrs. Then, the culture medium in the well was removed, and 50 μl/well of cell lysis buffer (from Advanced ERK phospho-T202/Y204 kit, the same hereinafter) was added, and mixed uniformly. The cells were cultured for 30 min. Then 16 μl of the mixture was transferred to a white-bottom opaque 96-well plate, and 16 μl of the cell lysis buffer was added to an additional well and used as a blank. After that, 4 μl of p-ERK HTRF antibody mixed solution (from Advanced ERK Phos Pho-T202/Y204 Kit) was added to each well. After incubation for 4 hrs, the fluorescence value (RLU) of HTRF was read on a microplate reader. The inhibition rate of the compound on p-ERK level was calculated by the formula IR (%)=(RLU of control−RLU of compound)/(RLU of control−RLU of blank)×100%. The compound concentration and the corresponding inhibition rate on p-ERK level in the cells were fitted by using Prism 8 four-parameter method, and the IC50 value was calculated.
Background: TR-FRET usually uses a lanthanide donor and a delayed reading to cut background.

The test system of data set [4] is AGS human gastric cancer cell line with KRAS G12D mutation. Put plainly: Cell proliferation inhibition experiment, 3D CellTiter-Glo, AGS. To be noted: AGS cells, 3D spheroid, 5 days. In kind it is cell-based.
Text: as §1, §2
A general note: Cellular ATP, detected with luciferase, serves as a proxy for viable cell number.

Structures are written as SMILES.

As a reminder, the AUC(0-t) is the area under the concentration-time curve up to a stated or last time point. Higher therefore signals more exposure. What is called bioavailability is the share of a dose that reaches the circulation, judged against a reference dose that is usually intravenous. In data set [1], `CCc1cccc2cc(O)cc(-c3nc4c5c(nc(OC[C@@]67CCCN6C[C@H](F)C7)nc5c3F)N3C[C@H]5CC[C@H](N5)[C@H]3CO4)c12` [Z140-1, 5-ethyl-4-((5aS,6S,9R)-1-fluoro-12-(((2R,7aS s)-2-fluorotetrahydro-1H-pyrrolizin-7a(5H)-yl)methoxy)-5a,6,7,8,9,10-hexahydro-5H-4-oxa-3,10a,11,13,14-pentaaza-6,9-methanonaphtho[1,8-ab]hepten-2-yl)naphthalen-2-ol] returned an AUC(0-t) of 42.1 ng·h/mL and a bioavailability of 2.33%.
In general, IC50 refers to the concentration that gives 50% inhibition. As to `C[C@@H]1Oc2nc(-c3cc(N)cc4cccc(Cl)c34)c(F)c3nc(OC[C@]45CCCN4CC(F)(F)C5)nc(c23)N2C[C@H]3CC[C@H](N3)[C@@H]12` [Z737, 5-chloro-4-((5S,5aS,6S,9R)-12-(((R)-2,2-difluorotetrahydro-1H-pyrrolizin-7a(5H)-yl)methoxy)-1-fluoro-5-methyl-5a,6,7,8,9,10-hexahydro-5H-4-oxa-3,10a,11,13,14-pentaaza-6,9-methanonaphtho[1,8-ab]hepten-2-yl)naphthalen-2-amine], the IC50 is 44.2 nM in data set [2], 15.3 nM in data set [3] and 34 nM in data set [4].
On to `C#Cc1c(F)ccc2cc(N)cc(-c3nc4c5c(nc(OC[C@]67CCCN6CC(F)(F)C7)nc5c3F)N3C[C@H]5CC[C@H](N5)[C@H]3[C@H](C)O4)c12` [Z739, 4-((5S,5aS,6S,9R)-12-(((R)-2,2-difluorotetrahydro-1H-pyrrolizin-7a(5H)-yl)methoxy)-1-fluoro-5-methyl-5a,6,7,8,9,10-hexahydro-5H-4-oxa-3,10a,11,13,14-pentaaza-6,9-methanonaphtho[1,8-ab]hepten-2-yl)-5-ethynylnaphthalen-2-amine], for which the IC50 in data set [2] (Homo sapiens, ASPC1, 120 h) is 6.16 nM; in data set [3] (Homo sapiens) it was 2.63 nM; in data set [4] (Homo sapiens, 120 h) it was 11 nM.
Taken in the same sequence, the figures for `Cc1cc(-c2nc3c4c(nc(OCC5(CN6CCOCC6)CC5)nc4c2F)N2C[C@H]4CC[C@H](N4)C2[C@H](C)O3)c(C)c(N)c1C1CC1` (some centres unmarked) [Z716] were 89.2 nM, 81.8 nM and 48.6 nM.
As to `C#Cc1cccc2cc(N)cc(-c3nc4c5c(nc(OCC67CCCN6CCC7=C(F)F)nc5c3F)N3C[C@H]5CC[C@H](N5)[C@H]3[C@H](C)O4)c12` (stereo partly drawn) [Z745, 4-((5S,5aS,6S,9R)-12-((1-(difluoromethylene)tetrahydro-1H-pyrrolizin-7a(5H)-yl)methoxy)-1-fluoro-5-methyl-5a,6,7,8,9,10-hexahydro-5H-4-oxa-3,10a,11,13,14-pentaaza-6,9-methanonaphtho[1,8-ab]hepten-2-yl)-5-ethynylnaphthalen-2-amine], the IC50 in data set [2] (Homo sapiens, ASPC1, 120 h) stood at 4.48 nM; in data set [3] (Homo sapiens) it was 0.84 nM; in data set [4] (Homo sapiens, 120 h) it was 3.95 nM.
Turning to `C#Cc1c(F)ccc2cccc(-c3nc4c5c(nc(OC[C@]67CCCN6CCC7=C)nc5c3F)N3C[C@H]5CC[C@H](N5)[C@H]3[C@H](C)O4)c12` [Z639, (5S,5aS,6S,9R)-2-(8-ethynyl-7-fluoronaphthalen-1-yl)-1-fluoro-5-methyl-12-(((R)-1-methylenetetrahydro-1H-pyrrolizin-7a(5H)-yl)methoxy)-5a,6,7,8,9,10-hexahydro-5H-4-oxa-3,10a,11,13,14-pentaaza-6,9-methanonaphtho[1,8-ab]heptene], the IC50 was found to be 93.7 nM in data set [2], 33.4 nM in data set [3] and 113 nM in data set [4].
As to `C#Cc1cccc2cc(N)cc(-c3nc4c5c(nc(OCC67CCCN6CCC7(F)F)nc5c3F)N3C[C@H]5CC[C@H](N5)[C@H]3[C@H](C)O4)c12` (stereo partly drawn) [Z741, 4-((5S,5aS,6S,9R)-12-((1,1-difluorotetrahydro-1H-pyrrolizin-7a(5H)-yl)methoxy)-1-fluoro-5-methyl-5a,6,7,8,9,10-hexahydro-5H-4-oxa-3,10a,11,13,14-pentaaza-6,9-methanonaphtho[1,8-ab]hepten-2-yl)-5-ethynylnaphthalen-2-amine], the IC50 in data set [2] (Homo sapiens, ASPC1, 120 h) was 10.1 nM; in data set [3] (Homo sapiens) it was 4.06 nM; in data set [4] (Homo sapiens, 120 h) it was 19.2 nM.
Taken in the same sequence, the figures for `C[C@@H]1Oc2nc(-c3cc(N)cc(Cl)c3C(F)(F)F)cc3nc(OC[C@@]45CCCN4CC(=C(F)F)C5)nc(c23)N2C[C@H]3CC[C@H](N3)[C@@H]12` [Z1085, 3-chloro-5-((5S,5aS,6S,9R)-12-(((S)-2-(difluoromethylene)tetrahydro-1H-pyrrolizin-7a(5H)-yl)methoxy)-5-methyl-5a,6,7,8,9,10-hexahydro-5H-4-oxa-3,10a,11,13,14-pentaaza-6,9-methanonaphtho[1,8-ab]hepten-2-yl)-4-(trifluoromethyl) aniline] were 3.04 nM, 0.78 nM and 0.88 nM.
In the case of `C#Cc1cccc2cccc(-c3nc4c5c(nc(OC[C@@]67CCCN6C[C@H](F)C7)nc5c3F)N3C[C@H]5CC[C@H](N5)[C@H]3C(CC)O4)c12` (stereo partly drawn) [Z387, (5S,5aS,6S,9R)-5-ethyl-2-(8-alkynylnaphthalen-1-yl)-1-fluoro-12-(((2R,7aS)-2-fluorotetrahydro-1H-pyrrolizin-7a(5H)-yl)methoxy)-5a,6,7,8,9,10-hexahydro-5H-4-oxy-3,10a,11,13,14-pentaaza-6,9-methanonaphtho[1,8-ab]heptene], the IC50 worked out at 202 nM in data set [2], 50.2 nM in data set [3] and 73.3 nM in data set [4].
Consider `C[C@@H]1Oc2nc(-c3cc(N)cc(Cl)c3C(F)(F)F)c(F)c3nc(OC[C@]45CCCN4CC(F)(F)C5)nc(c23)N2C[C@H]3CC[C@H](N3)[C@@H]12` [Z743, 3-chloro-5-((5S,5aS,6S,9R)-12-(((R)-2,2-difluorotetrahydro-1H-pyrrolizin-7a(5H)-yl)methoxy)-1-fluoro-5-methyl-5a,6,7,8,9,10-hexahydro-5H-4-oxa-3,10a,11,13,14-pentaaza-6,9-methanonaphtho[1,8-ab]hepten-2-yl)-4-(trifluoromethyl) aniline], for which the IC50 in data set [2] (Homo sapiens, ASPC1, 120 h) is 2.16 nM; in data set [3] (Homo sapiens), 0.84 nM; in data set [4] (Homo sapiens, 120 h), 1.95 nM.
